Results from patent US20260226073A1 (AURIGENE ONCOLOGY LIMITED, priority 2023, published 2026).
pIC50: −log10 of the molar value.

biological target: T1, human recombinant CBL-b (human Biotin CBL-b recombinant protein a.a. 39-426) (Homo sapiens, UniProt Q13191); assay: Biochemical assay for CBL-b inhibition (ligand displacement TR-FRET); assay type: binding; conditions: 50 nM CBL-b, 0.3 μM Bodipy FL-Probe, read-out: IC50 (CBL-b inhibition, group)
T1 construct: human Biotin CBL-b recombinant protein a.a; 39-426; Biotin (biotinylated); made in house
Experimental: The inhibitory activity of the test compounds was assessed by Ligand displacement TR-FRET assay. The human recombinant CBL-b (human Biotin CBL-b recombinant protein a.a. 39-426; synthesised in-house) was diluted in enzyme assay buffer (20 mM HEPES, 150 mM NaCl, 0.01% Triton X, 0.01% BSA, 0.5 mM TCEP) in a 10 μl volume and plated in 384-well plates (Cat #781075, Greiner) to a final concentration of 50 nM. The enzyme/compound mixture was incubated at RT for 60 min. The Bodipy FL-Probe described in WO 2020/210508 (synthesized in-house) diluted in enzyme assay buffer was added to the plate and incubated for 60 min RT, the final probe concentration was 0.3 μM. After 60 min incubation, 10 μl of detection mix (Terbium Streptavidin, (Cat #PV3576, Invitrogen) diluted in 1× Lance buffer) was added and incubated for 60 min at room temperature. Time-resolved fluorescence (excitation, 320 nm; emission donor, 615 nm; emission acceptor, 665 nm) was monitored by using 2030 multilabel reader Victor5 (PerkinElmer). The IC50 (concentration for half maximal inhibition) and % maximum inhibition of the compounds were estimated by fitting the dose response data to a sigmoidal curve fitting equation using Graph pad Prism software V. 8.

T1 sequence (Q13191 39-426): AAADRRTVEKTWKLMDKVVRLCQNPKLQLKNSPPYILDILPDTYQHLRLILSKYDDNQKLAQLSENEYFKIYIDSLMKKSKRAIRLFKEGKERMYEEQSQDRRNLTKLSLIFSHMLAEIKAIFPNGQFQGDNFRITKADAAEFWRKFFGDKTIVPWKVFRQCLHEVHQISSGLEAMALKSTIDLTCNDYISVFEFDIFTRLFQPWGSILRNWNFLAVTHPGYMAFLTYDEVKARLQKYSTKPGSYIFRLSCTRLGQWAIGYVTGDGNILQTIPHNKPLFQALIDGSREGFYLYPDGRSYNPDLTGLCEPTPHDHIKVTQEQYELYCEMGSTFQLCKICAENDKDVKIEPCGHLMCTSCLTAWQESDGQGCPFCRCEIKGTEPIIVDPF

pIC50, 5.30 to 6.52:
Cc1cc(CNCC2CC2)cc(N2Cc3ccc(-c4cccnc4-c4nncn4C)cc3C2=O)n1 [Compound 266]
Cc1cc(CNCC2CC2)cc(N2Cc3ccc(-c4ccc(Cl)cc4-c4nnc5ccccn45)cc3C2=O)n1 [Compound 268]
Cc1cc(CNCC2CC2)cc(N2Cc3ccc(-c4cc(Cl)ccc4-c4nncn4C)cc3C2=O)n1 [Compound 270]
Cc1cc(CN[S+]([O-])C(C)(C)C)cc(N2Cc3ccc(-c4ccc(F)cc4-c4nncn4C)cc3C2=O)n1 (stereo not shown) [Compound 285]
Cc1cc(CN2CCC[C@H]2CO)cc(N2Cc3ccc(-c4ccc(F)cc4-c4nncn4C)cc3C2=O)n1 [Compound 288]
CO[C@H]1CCN(Cc2cc(C)nc(N3Cc4ccc(-c5ccc(F)cc5-c5nncn5C)cc4C3=O)c2)C1 [Compound 290]
Cc1cc(CNC(C)(C)C)cc(N2Cc3ccc(-c4ccc(F)cc4-c4nncn4C)cc3C2=O)n1 [Compound 299]
COCCN(Cc1cc(C)nc(N2Cc3ccc(-c4ccc(F)cc4-c4nncn4C)cc3C2=O)c1)CC1CC1 [Compound 313]
CCN1CCC[C@@H]1CNCc1cc(C)nc(N2Cc3ccc(-c4ccc(F)cc4-c4nncn4C)cc3C2=O)c1 [Compound 317]
Cc1cc(CNCC(O)CN)cc(N2Cc3ccc(-c4ccc(F)cc4-c4nncn4C)cc3C2=O)n1 (stereo not shown) [Compound 318]
Cc1cc(CNC(C2CC2)C(F)(F)F)cc(N2Cc3ccc(-c4ccc(F)cc4-c4nncn4C)cc3C2=O)n1 (stereo not shown) [Compound 324]
CCC(NCc1cc(C)nc(N2Cc3ccc(-c4ccc(F)cc4-c4nncn4C)cc3C2=O)c1)C(=O)NC (stereo not shown) [Compound 327]
Cc1cc(C(C)c2cnn(C)c2)cc(N2Cc3ccc(-c4ccc(F)cc4-c4nncn4C)cc3C2=O)n1 (stereo not shown) [Compound 333, 6-(4-Fluoro-2-(4-methyl-4H-1,2,4-triazol-3-yl)phenyl)-2-(6-methyl-4-(1-(1-methyl-1H-pyrazol-4-yl)ethyl)pyridin-2-yl)isoindolin-1-one]
Cc1cc(C(C)c2nccn2C)cc(N2Cc3ccc(-c4ccc(F)cc4-c4nncn4C)cc3C2=O)n1 (stereo not shown) [Compound 334, 6-(4-Fluoro-2-(4-methyl-4H-1,2,4-triazol-3-yl)phenyl)-2-(6-methyl-4-(1-(1-methyl-1H-imidazol-2-yl)ethyl)pyridin-2-yl)isoindolin-1-one]
Cc1cc(NCC2CCCN2)cc(N2Cc3ccc(C4(Cc5nncn5C)COC4)cc3C2=O)n1 (stereo not shown) [Compound 336, 2-(6-Methyl-4-((pyrrolidin-2-ylmethyl)amino)pyridin-2-yl)-6-(3-((4-methyl-4H-1,2,4-triazol-3-yl)methyl)oxetan-3-yl)isoindolin-1-one]
Cc1cc(CNCC2CCCCN2)cc(N2Cc3ccc(-c4ccc(F)cc4-c4nncn4C)cc3C2=O)n1 (stereo not shown) [Compound 339, 6-(4-Fluoro-2-(4-methyl-4H-1,2,4-triazol-3-yl)phenyl)-2-(6-methyl-4-(((piperidin-2-ylmethyl)amino)methyl)pyridin-2-yl)isoindolin-1-one]

pIC50, > 7.10:
Cc1cc(CNCC2CC2)cc(N2Cc3ccc(-c4ccc(F)cc4-c4nocc4C)cc3C2=O)n1 [Compound 289, 2-(4-(((Cyclopropylmethyl)amino)methyl)-6-methylpyridin-2-yl)-6-(4-fluoro-2-(4-methylisoxazol-3-yl)phenyl)isoindolin-1-one]
Cc1cc(CN(C)CC2CC2)cc(N2Cc3ccc(-c4ccc(F)cc4-c4nncn4C)cc3C2=O)n1 [Compound 312]

pIC50, 6.52 to 7.10:
Cc1cc(CNCC2CC2)cc(N2Cc3ncc(-c4ccc(Cl)cc4-c4nncn4C)cc3C2=O)n1 [Compound 264]
Cc1cc(CNCC2CC2)cc(N2Cc3ccc(-c4cc(F)c(F)cc4-c4nncn4C)cc3C2=O)n1 [Compound 267]
Cc1cc(CNCC2CC2)cc(N2Cc3ccc(-c4ccc(Cl)cc4-c4cc[nH]n4)cc3C2=O)n1 [Compound 271]
Cc1cc(CNCC2CC2)cc(N2Cc3ccc(-c4ccc(C(F)(F)F)cc4-c4nncn4C)cc3C2=O)n1 [Compound 272]
Cc1cc(CNC(C)(C)CCO)cc(N2Cc3ccc(-c4ccc(Cl)cc4-c4nncn4C)cc3C2=O)n1 [Compound 276]
Cc1cc(CNS(C)(=O)=O)cc(N2Cc3ccc(-c4ccc(F)cc4-c4nncn4C)cc3C2=O)n1 [Compound 283]
Cc1cc(CN2CCC[C@@H]2CO)cc(N2Cc3ccc(-c4ccc(F)cc4-c4nncn4C)cc3C2=O)n1 [Compound 286]
Cc1cc(CNCC2CC2)cc(N2Cc3ccc(-c4ccc(F)cc4-c4ncco4)cc3C2=O)n1 [Compound 287]
Cc1cc(CNCC2(O)COC2)cc(N2Cc3ccc(-c4ccc(F)cc4-c4nncn4C)cc3C2=O)n1 [Compound 291]
Cc1cc(CNCC2(C)COC2)cc(N2Cc3ccc(-c4ccc(F)cc4-c4nncn4C)cc3C2=O)n1 [Compound 292]
Cc1cc(CN[C@H](CO)C(C)C)cc(N2Cc3ccc(-c4ccc(F)cc4-c4nncn4C)cc3C2=O)n1 [Compound 297]
Cc1cc(CNCCO)cc(N2Cc3ccc(-c4ccc(F)cc4-c4nncn4C)cc3C2=O)n1 [Compound 301]
Cc1cc(CNCC2(CO)CC2)cc(N2Cc3ccc(-c4ccc(F)cc4-c4nncn4C)cc3C2=O)n1 [Compound 316]
Cc1cc(CN[C@H](CO)CC(C)C)cc(N2Cc3ccc(-c4ccc(F)cc4-c4nncn4C)cc3C2=O)n1 [Compound 322]
Cc1cc(CN)cc(N2Cc3ccc(-c4ccc(F)cc4-c4nncn4C)cc3C2=O)n1 [Compound 331, 2-(4-(Aminomethyl)-6-methylpyridin-2-yl)-6-(4-fluoro-2-(4-methyl-4H-1,2,4triazol-3-yl)phenyl)isoindolin-1-one]
C=C(c1cc(C)nc(N2Cc3ccc(-c4ccc(F)cc4-c4nncn4C)cc3C2=O)c1)c1cnn(C)c1 [Compound 332, 6-(4-Fluoro-2-(4-methyl-4H-1,2,4-triazol-3-yl)phenyl)-2-(6-methyl-4-(1-(1-methyl-1H-pyrazol-4-yl)vinyl)pyridin-2-yl)isoindolin-1-one]
CN1CCC/C(=C/c2cc(Cl)nc(N3Cc4ccc(C5(Cc6nncn6C)COC5)cc4C3=O)c2)C1 [Compound 335, (Z)-2-(6-Chloro-4-((1-methylpiperidin-3-ylidene)methyl)pyridin-2-yl)-6-(3-((4-methyl-4H-1,2,4-triazol-3-yl)methyl)oxetan-3-yl)isoindolin-1-one]
Cc1cc(CNC(CC(C)(C)O)C2CC2)cc(N2Cc3ccc(-c4ccc(F)cc4-c4nncn4C)cc3C2=O)n1 (stereo not shown) [Compound 338, 2-(4-(((1-Cyclopropyl-3-hydroxy-3-methylbutyl)amino)methyl)-6-methylpyridin-2-yl)-6-(4-fluoro-2-(4-methyl-4H-1,2,4-triazol-3-yl)phenyl)isoindolin-1-one]
CN(CCC(F)(F)F)Cc1cc(Cl)nc(N2Cc3ccc(C4(Cc5nncn5C)COC4)cc3C2=O)c1 [Compound 340, 2-(6-Chloro-4-((methyl(3,3,3-trifluoropropyl)amino)methyl)-pyridin-2-yl)-6-(3-((4-methyl-4H-1,2,4-triazol-3-yl)methyl)oxetan-3-yl)isoindolin-1-one]
